Assay results published in US20210153484A1, “Humanized Mouse Model” (The Wistar lnstitute, priority 2018, published 2021).
Entries after “also recorded” stand apart in the source; their conditions may differ.

Assays:
human γ/δ+ T-cells = experiment: Human T γ/δ cells in reconstituted Hu-mice treated with HMBPP (IHC); assay type: in vivo, mouse; settings: HMBPP 50 mg/kg i.p.
Excerpt: FIGS. 6A-6C illustrate the human immune subpopulation in spleen, thymus, lymph node, small intestines (SI) and lungs of humanized mice. […] Mouse SI and lungs show presence of IgA+ and IgE+ cells (left and right panels) as determined by mouse anti-human IgA or […] antibodies. Minimal staining of mouse cells was observed when the tissue sections were stained with anti-mouse specific antibodies (See FIG. 23). […] Mouse spleen (left panels; a), thymus (middle panels) and mesenteric lymph nodes (right panels) show presence of CD4+ (top panels) and CD8+ (bottom panels) T-cells as determined by IHC staining using anti-human CD4 or CD8 antibodies. […] Presence of T γ/δ cells were determined in a IHC staining by using mouse anti-human TcR γ/δ antibody.
Besides the presence of human CD45+ cells, the presence of monocytes/myeloid lineage cells HLA DR+, CD33+, CD15+, CD11b+ and CD14+ was observed (FIG. 5D). […] B-cells are fully functional, as antigen specific IgG were detected in circulating blood (see anti-hTERT response below), and IgA and IgE with unknown specificity in the mucosal layers of small intestines and the lungs (FIG. 6B, FIG. 23). Human CD4+ and CD8+ subpopulations of T-cells were detected in spleen, thymus and mesenteric lymph node tissues (FIG. 6C). […]

[1] = test system: WM3629 [HLA-A3] melanoma cells; experiment: Anti-PD1 therapy in Hu-mice melanoma model, WM3629 tumors; assay type: in vivo, mouse; settings: anti-PD1 10 mg/kg i.p. weekly
Description: (§1) FIGS. 8A-8H illustrate functional characterization of human immune cells in humanized mice. FIGS. 8A-8C show T- and B-cell response to hTERT vaccine. FIG. 8A is a schema for hTERT DNA vaccination. Hu-mice received a total of 3 injections of hTERT vaccine (hTERT DNA [50 μg; i.m] followed by electroporation) every 2 weeks and the mice were sacrificed 1 week after the last injection to determine T- and B-cell responses. […] Spleen cells from Hu-mice (n=3) were stimulated overnight (18 h) with pools of overlapping hTERT peptides (15 mer; 2 μg/ml/peptide) spanning the entire hTERT protein. Human IFNγ was detected in ELISPOT assay using a kit. […] Endpoint binding titer was determined in sera of hTERT vaccinated mice after 3 immunizations and compared to sera from NSG mice as controls. […] Tumor growth measurements are recorded using digital caliper by an independent researcher. […]
(§2) All animal experiments were performed according to protocols approved by the Wistar Institute's Institutional Animal Care and User Committee (IACUC). […] Six to 8 weeks (>50 days) later, presence of human immune cells was monitored by multi-color flow cytometry using 18 color BD LSR II Analyzer (BD Biosciences; Somasundaram et al. Nat. Commun. 2017, 8(1):607). […] Tumors were measured twice a week using digital calipers.

[2] = test system: A375 [HLA-A2] melanoma cells; experiment: Anti-PD1 therapy in Hu-mice melanoma model, A375 tumors; assay type: in vivo, mouse; settings: anti-PD1 10 mg/kg i.p. weekly
Description: as §1, §2

451LU melanoma = experiment: Anti-PD1 therapy in Hu-mice melanoma model, aggressively growing 451LU tumors; assay type: in vivo, mouse
Description: All animal experiments were performed according to protocols approved by the Wistar Institute's Institutional Animal Care and User Committee (IACUC). NOD/LtSscidIL2Rγ^null (NSG) mice were inbred at The Wistar Institute under license from the Jackson Laboratory. For humanization, fetal liver and thymus were obtained from the same donor (18-22 weeks of gestation). NSG mice (6 to 8 weeks) received thymus graft (1 mm^3) in sub-renal capsule 24 h post myeloablation using Busulfan (30 mg/kg, i.p.; Sigma-Aldrich [B2635], St. Louis, Mo.). This is immediately followed by injection of autologous liver-derived CD34^+ hematopoietic stem cells (10^5 cells/mouse, i.v., FIG. 5A) that was magnetically sorted by microbeads conjugated with anti-human CD34 (Miltenyi Biotec., [130-046-703], Auburn, Calif.; Chen et al. Bio Protoc. (2013) 3(23)). Six to 8 weeks (>50 days) later, presence of human immune cells was monitored by multi-color flow cytometry using 18 color BD LSR II Analyzer (BD Biosciences; Somasundaram et al. Nat. Commun. 2017, 8(1):607). To accelerate human immune cell reconstitution mice received AAV8 encoding human IL-3, IL-7 and GM-CSF (FIG. 5; FIG. 20A; 10^8; iv; Wu, . . . Ertl., et al 2013). […] Tumors were measured twice a week using digital calipers.

[3] = test system: tumor-infiltrating immune cells; experiment: IHC, MassCyTOF and RNA-seq/CIBERSORT analysis of tumors from anti-PD1 treated Hu-mice; assay type: in vivo, mouse
Description: (§3) IHC staining was performed as previously described (Somasundaram et al 2017). Briefly, tissue sections were subjected to antigen retrieval by incubation with Target Retrieval Solution (Citrate [S1699] or Tris-EDTA buffers [S2367]; Agilent-DAKO, Santa Clara, Calif.) kit at 95° C. for 20 min and subsequently incubated with primary antibodies with optimum dilutions (FOXP3 [1:10]; CD4, HLA class I, HMB45 and mast cell tryptase [all at 1:100 dilution]; CD68, IgA and IgE [all at 1:400 dilution] and CD8 [1:500 dilution]. For detection of primary antibodies slides were incubated with anti-mouse, anti-rat or anti-rabbit antibodies at 1:1000 dilution and visualized by DAB (SK-4100) or AEC (SK-4200; both Vector Laboratories, Burlingame, Calif.) chromogens.
CyTOF staining was performed as previously described (Wang et al 2019). Briefly, carrier-free antibodies were commercially obtained and tagged with lanthanide metals using the Maxpar X8 metal conjugation kit from Fluidigm^R (201300, Ontario, Canada). Antigen retrieval was performed on deparaffinized tissue sections at 95° C. for 30 min in Tris/EDTA buffer, slides were cooled, blocked with 3% BSA-PBS solution and incubated with cocktail of antibodies (100 ul) overnight at 4° C. Next day slides were washed 3× with PBS and labeled with 1:400 dilution of Intercalator-Ir (Fluidigm 201192B) in PBS for 30 min at RT. Slides were washed with water (3×) and air dried for 30 mins before image mass cytometry acquisition using Fluidigm Hyperion Imaging System.
RNAseq was done using ScriptSeq RNA-seq library preparation kit (Illumina, [BHMR1205], San Diego, Calif.). Quality control of RNA and DNA library was done using the Tapestation 4200 and Bioanalyzer 2100 system (Agilent, Santa Clara, Calif.). Library quantification was done using the Kapa Library Quantification qPCR kit (Roche, [KK4854], Pleasanton, Calif.) and subjected to a 75 bp paired-end sequencing run on Illumina's NExtSeq 500 high output kit following the manufacturer's protocol. RNA-seq analysis was performed using RSEM v1.2.12 software and downstream expression analysis was done using Differential2 (Shuai Wu et al. Nature Commun. 2018; 9: 4166). RNA-seq data was used to enumerate tumor-infiltrating leukocytes using CIBERSORT, an analytical tool available online (cibersort.stanford.edu) (Chen et al. Methods Mol. Biol. 2018; 1711:243-259).
In order to understand the phenomenon of mixed therapy responses to anti-PD1 treatment, IHC, multiplexed imaging using MassCyTOF and RNA-seq was performed on tumors obtained from anti-PD1 treated Hu-mice and they were compared with control Ig treated mice. […]

mast cells in tumor = experiment: Mast cell immunostaining of melanoma patients' tumors after anti-PD1 therapy; assay type: in vivo, human; settings: compared to untreated individuals
Description: as §3

[4] = compared to control IgG or non-reconstituted NSG mice treated with anti-PD1, listed as Anti-PD1 antibody
[5] = compared to control IgG or non-reconstituted NSG mice treated with anti-PD1, listed as anti-PD1 antibody

Row | Compound | human T γ/δ cells in tissues (human γ/δ+ T-cells) | tumor growth of WM3629 melanoma [1, 4] | tumor growth of WM3629 melanoma [1, 5] | tumor growth of A375 melanoma [2, 4] | tumor growth of A375 melanoma [2, 5] | immune infiltrating cells by IHC staining (451LU melanoma; 451Lu tumors in Hu-mice after anti-PD1) | tumor growth of 451LU melanoma (451LU melanoma; Hu-mice, aggressively growing metastatic melanoma) | immune (leukocyte) infiltration in tumor sections ([3]; H&E/IHC, compared to control IgG treated / untreated Hu-mice) | transcription of chemokine genes (CCL2, CCL3, CCL4, CCLS, CXCL9, CXCL10 and CXCL11) ([3]; RNA-seq of tumors after anti-PD1 treatment) | mast cell numbers in tumors (mast cell tryptase IHC) ([3]; compared to control Ig treated mice) | tumor resident mast cells / mast related genes by CIBERSORT of RNA-seq data ([3]; tumors from Hu-mice with and without anti-PD1) | mast cells in melanoma patients' tumor (mast cells in tumor)
1 | C/C(=C\COP(=O)(O)OP(=O)(O)O)CO [HMBPP, hydroxy-2-methyl-2-butenyl 4-pyrophosphate] | further expanded | – | – | – | – | – | – | – | – | – | – | –
2 | anti-PD1: anti-PD-1 antibody (Keytruda, Merck, Rahway, N.J.) | – | restrict tumor growth | significantly restricted tumor growth | restrict tumor growth | significantly restricted tumor growth | No immune infiltrating cells were detected | negligible effect on growth; also recorded: unable to restrict tumor growth | Higher levels of immune infiltration; also recorded: dense leukocyte infiltration | higher transcription | increased numbers | higher presence of tumor resident mast cells; also recorded: higher expression of mast related genes | increased presence of mast cells
